{
  "source": "patent US20230364204A1",
  "about": "“Bioactive Peptides, Compositions, Production Process, and Use of Bioactive Peptides as Anti-Tumoral Agents” (priority 2022, published 2023)",
  "key": {"[1]": {"test_system": "MDA-MB-231 cells implanted in zebrafish larvae", "assay": "Zebrafish xenograft model of MDAMB231 (primary tumor and metastasis)", "assay_type": "in vivo", "settings": "72 h, 3-NantC co-implanted at 75, 100 or 125 mg/mL, Doxorubicin 2.5 µg/mL in embryo water", "method": "Transgenic Tg(fli1:EGFP)y1 zebrafish embryos were raised at 28° C. for 48 hours in E3 embryo medium 0.2 mM 1-Phenyl-2-Thiourea aka PTU. […] MDA-MB-231 cells were labeled with Dil red fluorescent dye. Approximately 700 Dil Labeled cancer cells were subcutaneously co-implanted into the perivitelline space of 2 days old larvae ± 3-NantC peptide at […]. Larvae in which tumor cells had been inadvertently injected into circulation or larvae with erroneous implantation of the tumor in the yolk rather than the perivitelline space were excluded from the study. Selected tumor bearing embryos were sorted into experimental groups (20 embryos/group), and pictures of primary tumors were taken right after injection. Doxorubicin treatment was added to embryo water at 2.5 µg/mL according to the study plan. Tumor-bearing embryos were incubated in E3/PTU medium for 72 h at 36° C. After incubation, pictures of the primary tumors and the CVP were taken using a red fluorescent filter. Larvae that died or were lost by other means during the study were excluded from the final analysis.\nImages obtained right after implantation (day 0) and after 72 h incubation (day 3) were analyzed by using in-house developed software. Tumor growth regression was calculated and normalized to the negative control group. The number of metastasized cells was counted manually. One-way ANOVA was performed followed by two-tailed Student’s t-test. Definitive outliers were detected using the ROUT method with a Q=1%. Graphs and example images, and experimental data were obtained/analyzed by using GraphPad Prism v9.0.2."}, "[2]": {"assay": "MTT cell viability, mammary benign cells", "assay_type": "cell-based", "settings": "human, MCF10A cells (mammary benign cells), read-out: viable cells (MTT)", "method": "(§1) For the method of MTT, the cells were plated in 96-well sterile plates for cell culture with a cap at the density of 2 × 10^4 cells/well for treatments lasting 24 h and 1 × 10^4 cells/well for treatments lasting 48 h or more, completing the volume to 100 µL with culture medium. The plates were incubated for 8-16 h in an incubator at 37° C. and 5% CO2. The next day, the treatments were prepared in culture medium, applying 200 µL/well at the desired concentration, and the plates were placed in an incubator at 37° C. and 5% CO2for the duration of treatment. After the treatment period, 20 µL/well of a MTT solution was added in PBS (1×) at a concentration of 5 mg/mL, and the dye was incubated at 37° C. and 5% CO2 for 2.5 h. After incubation with MTT, Formazan salts were solubilized with the addition of 200 µL of dimethylsulfoxide solution (DMSO): isopropanol (3:1) and agitated for at least 15 minutes at room temperature. After complete dissolution of the salts, the absorbance was read in a spectrophotometer at 570 nm with endpoint protocol.\n(§2) The calculation of cell viability was performed using the formula: […]\n(§3) O.D.: optical density captured by spectrophotometer\n(§4) NOTE: The Basal O.D. is the one found in the blank wells."}, "[3]": {"test_system": "MDAMB231 cells (triple negative)", "assay": "MTT cell viability, tumor cells", "assay_type": "cell-based", "method": "as §1, §2, §3, §4\nIn order to determine the efficacy (comparison of doses and times for the MDAMB231 cell line) and safety (comparison between the effects on MDAMB231 and HDFa cells) of the peptide SEQ ID 1 - MFYPDSRCRGPSET (C-terminal region of Crotoxin B), named 3-NAntC, the Analysis of Variance (ANOVA) with Bonferroni post-hoc test was applied to the significance of 5% in GraphPad Prism software version 6.0."}},
  "data": [
    {"compound": "COc1cccc2c1C(=O)c1c(O)c3c(c(O)c1C2=O)C[C@@](O)(C(=O)CO)C[C@@H]3O[C@H]1C[C@H](N)[C@H](O)[C@H](C)O1", "note": "[Doxorubicin, reference compound]", "values": [
      {"measurement": "decrease of tumor cells (primary tumor)", "setting": "[1]", "value": "about 35%"}
    ]},
    {"compound": "H-AIPFYAFY-OH [Peptide B, [H)-AIPFYAFY-(OH]]", "values": [
      {"measurement": "viability at 48 h", "setting": "[2]", "value": "~85", "unit": "%"}
    ]},
    {"compound": "MFYPDSRSRGPSET [SEQ ID 10, 3-NAntC monomer]", "values": [
      {"measurement": "compared efficacy in decreasing MDAMB231 cells' viability (MTT, FIG. 13/14)", "setting": "[3]; MDAMB231, SEQ IDs 2-10 compared to SEQ ID 1", "value": "interesting antitumor effect"}
    ]},
    {"compound": "[H]-HLLQ FNKMIKFETRKNAIPF-[OH] (N-terminal HLLQ) [Peptide A, peptide derived from the N-terminal region of Crotoxin B, reference compound]", "values": [
      {"measurement": "effect on viability of the tumor cells (MTT), in words", "setting": "[3]; MDAMB231", "value": "did not decrease the viability"}
    ]}
  ]
}
